Measurements: PubChem BioAssay AID256 (DTP/NCI, 2004)
Where “and” joins values, the source holds several entries; their conditions need not be identical. Equal values may be shown once. Inconclusive results and toxic doses are left out.

Test system: CD2F1 mice, L1210 leukemia ip, survival T/C
Assay: NCI In Vivo Anticancer Drug Screen. Data for tumor model L1210 Leukemia (intraperitoneal) in CD2F1 (CDF1) mice
Conditions: endpoint: mean survival time, higher = longer survival
Summary of the method: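 Activity against a transplanted murine tumor was judged by comparing the compound group with a vehicle group. The outcome in the treated animals was divided by that in the controls.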

[1] = dose: 100.0 mg/kg/injection, schedule: Q01DX001 (ip), vehicle: saline
[2] = dose: 200.0 mg/kg/injection, schedule: Q01DX001 (ip), vehicle: saline
[3] = dose: 400.0 mg/kg/injection, schedule: Q01DX001 (ip), vehicle: saline
[4] = dose: 100.0 mg/kg/injection, schedule: Q01DX001 (ip), vehicle: saline with Tween-80
[5] = dose: 200.0 mg/kg/injection, schedule: Q01DX001 (ip), vehicle: saline with Tween-80
[6] = dose: 400.0 mg/kg/injection, schedule: Q01DX001 (ip), vehicle: saline with Tween-80

`CCOC(=O)C1CCCNC1=O` (stereo not given) was tested, and the T/C [1] was 101 % of control, the T/C [2] was 94 % of control and the T/C [3] was 95 % of control.
`C/C(=N\N)c1ccc(Cl)cc1` was tested, and the T/C (dose: 100.0 mg/kg/injection, schedule: Q04DX003 (ip), vehicle: saline with Tween-80) was 103 % of control, the T/C (dose: 200.0 mg/kg/injection, schedule: Q04DX003 (ip), vehicle: saline with Tween-80) was 123 % of control and the T/C (dose: 400.0 mg/kg/injection, schedule: Q04DX003 (ip), vehicle: saline with Tween-80) was 109 % of control.
With `CCCCCCCCCCCC(=O)/C=C/Sc1n[nH]c(=O)[nH]c1=O` the T/C (dose: 12.5 mg/kg/injection, schedule: Q01DX005 (ip), vehicle: distilled water + Tween-80) was 102 % of control, the T/C (dose: 25.0 mg/kg/injection, schedule: Q01DX005 (ip), vehicle: distilled water + Tween-80) was 104 % of control and the T/C (dose: 50.0 mg/kg/injection, schedule: Q01DX005 (ip), vehicle: distilled water + Tween-80) was 100 % of control. For the same compound, the T/C (dose: 100.0 mg/kg/injection, schedule: Q01DX005 (ip), vehicle: distilled water + Tween-80) was 102 % of control.
In the case of `COc1ccc(NC(=O)Nc2ccccc2OC)c(OC)c1`, the T/C (dose: 100.0 mg/kg/injection, schedule: Q04DX002 (ip), vehicle: saline with Tween-80) is reported as 94 % of control, the T/C (dose: 200.0 mg/kg/injection, schedule: Q04DX002 (ip), vehicle: saline with Tween-80) is reported as 94 % of control and the T/C (dose: 400.0 mg/kg/injection, schedule: Q04DX002 (ip), vehicle: saline with Tween-80) is reported as 87 % of control.
In the case of `Nc1ccc(OC(=O)Oc2ccc(N)cc2)cc1`, the T/C (dose: 18.75 mg/kg/injection, schedule: Q06HX068 (ip), vehicle: other) is reported as 87 % of control, the T/C (dose: 18.75 mg/kg/injection, schedule: Q#A X034 (ip), vehicle: other) is reported as 100 % of control and the T/C (dose: 37.5 mg/kg/injection, schedule: Q01DX017 (ip), vehicle: other) is reported as 106 % of control. The T/C (dose: 37.5 mg/kg/injection, schedule: Q#A X034 (ip), vehicle: other) was 103 % of control, the T/C (dose: 75.0 mg/kg/injection, schedule: Q01DX001 (ip), vehicle: other) was 100 % of control and the T/C (dose: 75.0 mg/kg/injection, schedule: Q01DX005 (ip), vehicle: other) was 112 % of control. The T/C (dose: 150.0 mg/kg/injection, schedule: Q01DX001 (ip), vehicle: other) was 102 % of control, the T/C (dose: 150.0 mg/kg/injection, schedule: Q01DX017 (ip), vehicle: other) was 154 % of control and the T/C (dose: 150.0 mg/kg/injection, schedule: Q#A X034 (ip), vehicle: other) was 155 % of control. For the same compound, the T/C (dose: 300.0 mg/kg/injection, schedule: Q01DX001 (ip), vehicle: other) was 103 % of control.
In the case of `CCOC1OC(COC(C)=O)C(OC(C)=O)C(OC(C)=O)C1OC(C)=O` (stereo not given), the T/C [4] is reported as 94 % of control, the T/C [5] is reported as 97 % of control and the T/C [6] is reported as 96 % of control.
For `C=CC(=O)NC12CC3CC(CC(C3)C1)C2`, the T/C (dose: 100.0 mg/kg/injection, schedule: Q04DX003 (ip), vehicle: saline) was 100 % of control, the T/C (dose: 200.0 mg/kg/injection, schedule: Q04DX003 (ip), vehicle: saline) was 101 % of control and the T/C (dose: 400.0 mg/kg/injection, schedule: Q04DX003 (ip), vehicle: saline) was 101 % of control.
With `Oc1ccc(O)cc1` the T/C (dose: 33.0 mg/kg/injection, schedule: Q01DX009 (ip), vehicle: saline) was 102 % of control and 103 % of control, the T/C (dose: 75.0 mg/kg/injection, schedule: Q01DX001 (ip), vehicle: saline) was 107 % of control and the T/C (dose: 75.0 mg/kg/injection, schedule: Q01DX009 (ip), vehicle: saline) was 120 % of control. For the same compound, the T/C (dose: 113.0 mg/kg/injection, schedule: Q01DX009 (ip), vehicle: saline) was 96 % of control.
With `CCOC(=O)C1=C(N)CCCC1` the T/C (dose: 100.0 mg/kg/injection, schedule: Q01DX001 (ip), vehicle: Klucel (hydroxypropylcellulose) (HPC)) was 96 % of control, the T/C (dose: 200.0 mg/kg/injection, schedule: Q01DX001 (ip), vehicle: Klucel (hydroxypropylcellulose) (HPC)) was 122 % of control and the T/C (dose: 400.0 mg/kg/injection, schedule: Q01DX001 (ip), vehicle: Klucel (hydroxypropylcellulose) (HPC)) was 96 % of control.
For `CCCCCC(CN(C)C)C(=O)/C=C/c1ccc(Cl)c(Cl)c1` (stereo not given), the T/C (dose: 6.25 mg/kg/injection, schedule: Q01DX009 (ip), vehicle: acetone) was 92 % of control, the T/C (dose: 12.5 mg/kg/injection, schedule: Q01DX009 (ip), vehicle: acetone) was 94 % of control and the T/C (dose: 25.0 mg/kg/injection, schedule: Q01DX009 (ip), vehicle: acetone) was 97 % of control.
For `O=[N+]([O-])c1ccc(/C=N/O)o1`, the T/C (dose: 12.5 mg/kg/injection, schedule: Q01DX001 (ip), vehicle: saline) was 93 % of control and 101 % of control, the T/C (dose: 25.0 mg/kg/injection, schedule: Q01DX001 (ip), vehicle: saline) was 102 % of control and the T/C (dose: 50.0 mg/kg/injection, schedule: Q01DX001 (ip), vehicle: saline) was 97 % of control and 102 % of control. The T/C [1] was 100 % of control and 101 % of control and 102 % of control and the T/C (dose: 150.0 mg/kg/injection, schedule: Q01DX001 (ip), vehicle: saline) was 100 % of control.
For `CCOC(=O)c1c2cccccc-2c(C#N)c1O`, the T/C [4] was 93 % of control, the T/C [5] was 99 % of control and the T/C [6] was 96 % of control.
For `O=P(OCCCCl)(OCCCCl)C(Cl)Cl`, the T/C [1] was 102 % of control, the T/C [2] was 102 % of control and the T/C [3] was 103 % of control.
